The values that follow come from ChEMBL document CHEMBL1743341, “Cytochrome p450 enzymes mechanism based inhibitors: common sub-structures and reactivity” (Curr Drug Metab, 2005).

The target of data set [1] is T1, CYP2C8 (Homo sapiens, UniProt P10632).
T1 sequence (P10632 whole entry): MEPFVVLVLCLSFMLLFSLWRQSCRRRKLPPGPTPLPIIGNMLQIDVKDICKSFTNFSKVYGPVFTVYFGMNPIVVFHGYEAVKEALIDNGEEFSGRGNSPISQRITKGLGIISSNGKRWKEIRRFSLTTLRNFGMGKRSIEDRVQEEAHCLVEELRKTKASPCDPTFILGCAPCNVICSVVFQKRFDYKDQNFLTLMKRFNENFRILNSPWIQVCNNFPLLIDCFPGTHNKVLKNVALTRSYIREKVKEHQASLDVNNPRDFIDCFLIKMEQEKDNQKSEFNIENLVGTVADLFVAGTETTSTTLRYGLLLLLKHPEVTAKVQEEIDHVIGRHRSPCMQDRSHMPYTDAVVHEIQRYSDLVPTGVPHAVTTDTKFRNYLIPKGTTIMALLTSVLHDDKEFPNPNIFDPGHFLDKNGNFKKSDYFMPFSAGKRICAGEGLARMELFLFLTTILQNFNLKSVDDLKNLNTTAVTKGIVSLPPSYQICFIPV
The data set can be described thus: in vitro. Conditions: human liver microsomes, probe paclitaxel.
Description: (§5) Mechanism based inhibition of human cytochrome P450 2C8 measured by paclitaxel hydroxylation using human liver microsomes

The target of data set [2] is T1, CYP2C8. The data set can be described thus: in vitro. As to conditions: recombinant CYP2C8, probe paclitaxel.
Description: (§6) Mechanism based inhibition of human cytochrome P450 2C8 measured by paclitaxel hydroxylation using a recombinant system
For data set [3], the target named is T2, Cytochrome P450 2C8 (Homo sapiens, UniProt P10632).
T2 sequence (P10632 whole entry): T1 sequence (P10632 whole entry)
Description: as §6

Data set [4] has as its target T2, Cytochrome P450 2C8. This is another data set of the same source.
Description: as §5
The target in data set [5] is Cytochrome P450 2E1 (Oryctolagus cuniculus) (UniProt P08682). The data set can be described thus: Mechanism based inhibition of rabbit cytochrome P450 CYP2E1 measured by 7-EFC O-deethylation activity. Conditions: probe 7-EFC (O-deethylation).
Sequence of Cytochrome P450 2E1 (Oryctolagus cuniculus) (P08682 whole entry, looked up): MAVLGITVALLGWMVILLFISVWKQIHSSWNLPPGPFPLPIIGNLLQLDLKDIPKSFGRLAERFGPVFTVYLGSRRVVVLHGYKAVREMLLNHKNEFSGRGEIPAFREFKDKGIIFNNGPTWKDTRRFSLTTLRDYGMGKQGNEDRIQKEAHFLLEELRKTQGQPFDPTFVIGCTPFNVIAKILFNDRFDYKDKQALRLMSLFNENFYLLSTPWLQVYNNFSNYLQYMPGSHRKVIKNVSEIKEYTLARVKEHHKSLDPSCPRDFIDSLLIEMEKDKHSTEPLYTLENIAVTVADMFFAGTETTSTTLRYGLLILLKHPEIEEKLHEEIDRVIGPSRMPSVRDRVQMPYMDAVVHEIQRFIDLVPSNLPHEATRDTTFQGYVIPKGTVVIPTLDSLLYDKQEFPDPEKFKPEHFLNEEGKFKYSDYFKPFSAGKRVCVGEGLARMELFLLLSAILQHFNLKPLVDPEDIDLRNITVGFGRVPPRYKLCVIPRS
The target in data set [6] is T3, Cytochrome P450 2B4 (Oryctolagus cuniculus, UniProt P00178).
T3 sequence (P00178 whole entry): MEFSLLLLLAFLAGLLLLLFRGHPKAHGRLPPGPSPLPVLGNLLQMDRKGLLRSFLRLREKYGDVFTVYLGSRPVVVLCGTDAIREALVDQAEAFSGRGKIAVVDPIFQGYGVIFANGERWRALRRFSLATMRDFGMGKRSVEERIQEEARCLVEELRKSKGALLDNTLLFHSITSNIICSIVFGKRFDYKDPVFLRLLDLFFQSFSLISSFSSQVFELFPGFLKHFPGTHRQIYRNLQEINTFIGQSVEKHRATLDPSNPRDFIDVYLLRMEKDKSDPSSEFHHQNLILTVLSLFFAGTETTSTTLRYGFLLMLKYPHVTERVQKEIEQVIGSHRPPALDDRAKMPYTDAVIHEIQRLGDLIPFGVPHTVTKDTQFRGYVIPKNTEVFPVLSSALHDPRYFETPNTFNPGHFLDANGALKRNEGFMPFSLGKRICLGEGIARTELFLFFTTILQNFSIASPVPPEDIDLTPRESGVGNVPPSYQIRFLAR
In words: (§1) Mechanism based inhibition of rabbit cytochrome P450 CYP2B4 measured by 7-EFC O-deethylation activity. In kind it is ADME.

Another data set has as its target T4, CYP2B4 (Oryctolagus cuniculus, UniProt P00178).
T4 sequence (P00178 whole entry): T3 sequence (P00178 whole entry)
Described as §1. In kind it is ADME. Conditions: rabbit, probe 7-EFC (O-deethylation).

Data set [7] deals with T3, Cytochrome P450 2B4. The data set can be described thus: Mechanism based inhibition of rabbit cytochrome P450 CYP2B4 partition ratio. Type of data set: ADME.
A further data set deals with T5, CYP2B1 (Rattus norvegicus, UniProt P00176).
T5 sequence (P00176 whole entry): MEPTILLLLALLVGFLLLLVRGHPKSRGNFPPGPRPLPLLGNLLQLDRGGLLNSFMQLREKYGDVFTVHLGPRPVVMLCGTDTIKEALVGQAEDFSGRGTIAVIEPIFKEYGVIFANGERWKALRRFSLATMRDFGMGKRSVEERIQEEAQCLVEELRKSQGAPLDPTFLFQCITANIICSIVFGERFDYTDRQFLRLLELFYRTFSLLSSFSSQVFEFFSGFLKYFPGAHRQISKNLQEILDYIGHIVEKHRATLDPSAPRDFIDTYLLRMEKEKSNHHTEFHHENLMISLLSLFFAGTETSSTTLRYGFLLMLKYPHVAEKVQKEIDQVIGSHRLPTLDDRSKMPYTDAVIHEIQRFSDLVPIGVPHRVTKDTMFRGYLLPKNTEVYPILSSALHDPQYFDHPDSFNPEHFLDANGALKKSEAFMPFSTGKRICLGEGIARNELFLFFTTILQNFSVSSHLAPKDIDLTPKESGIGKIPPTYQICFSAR
The data set can be described thus: (§2) Mechanism based inhibition of rat cytochrome P450 CYP2B1 measured by 7-pentoxyresorufin […] activity (PROD). Conditions: rat, probe 7-pentoxyresorufin ([…], PROD). In kind it is ADME.

Data set [8] addresses T6, Cytochrome P450 2B1 (Rattus norvegicus, UniProt P00176).
T6 sequence (P00176 whole entry): T5 sequence (P00176 whole entry)
Described as §2. In kind it is ADME.

For the next data set, the target named is T7, CYP1A2 (Rattus norvegicus, UniProt P04799).
T7 sequence (P04799 whole entry): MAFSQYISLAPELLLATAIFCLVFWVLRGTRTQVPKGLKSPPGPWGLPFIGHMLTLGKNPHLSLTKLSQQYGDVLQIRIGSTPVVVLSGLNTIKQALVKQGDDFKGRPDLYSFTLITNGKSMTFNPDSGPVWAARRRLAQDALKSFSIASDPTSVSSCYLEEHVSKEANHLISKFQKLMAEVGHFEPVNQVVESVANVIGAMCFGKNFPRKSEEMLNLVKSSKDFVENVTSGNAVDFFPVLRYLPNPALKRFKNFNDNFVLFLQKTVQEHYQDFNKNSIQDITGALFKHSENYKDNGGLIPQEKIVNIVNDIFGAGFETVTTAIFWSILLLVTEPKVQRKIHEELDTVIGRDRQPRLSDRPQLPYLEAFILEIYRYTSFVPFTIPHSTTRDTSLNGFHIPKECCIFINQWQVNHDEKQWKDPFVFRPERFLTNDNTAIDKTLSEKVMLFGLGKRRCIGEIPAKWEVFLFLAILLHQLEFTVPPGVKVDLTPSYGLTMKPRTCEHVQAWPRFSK
In words: (§3) Mechanism based inhibition of rat cytochrome P450 CYP1A2 measured by 7-methoxyresorufin O-demethylation (MROD). In kind it is ADME. Conditions: rat, probe 7-methoxyresorufin (O-demethylation, MROD).

Another data set concerns the target T8, Cytochrome P450 1A2 (Rattus norvegicus, UniProt P04799).
T8 sequence (P04799 whole entry): T7 sequence (P04799 whole entry)
Described as §3. Type of data set: ADME.

The target of data set [9] is T6, Cytochrome P450 2B1. In words: Mechanism based inhibition of rat cytochrome P450 CYP2B1 measured by androstenedione 16-beta-hydroxylation and R- and S- warfarin hydroxylation. Type of data set: ADME.
A further data set deals with Cytochrome P450 2E1 (Homo sapiens, UniProt P05181). In words: Mechanism based inhibition of human cytochrome P450 2E1. Type of data set: ADME.
Sequence of Cytochrome P450 2E1 (P05181 whole entry): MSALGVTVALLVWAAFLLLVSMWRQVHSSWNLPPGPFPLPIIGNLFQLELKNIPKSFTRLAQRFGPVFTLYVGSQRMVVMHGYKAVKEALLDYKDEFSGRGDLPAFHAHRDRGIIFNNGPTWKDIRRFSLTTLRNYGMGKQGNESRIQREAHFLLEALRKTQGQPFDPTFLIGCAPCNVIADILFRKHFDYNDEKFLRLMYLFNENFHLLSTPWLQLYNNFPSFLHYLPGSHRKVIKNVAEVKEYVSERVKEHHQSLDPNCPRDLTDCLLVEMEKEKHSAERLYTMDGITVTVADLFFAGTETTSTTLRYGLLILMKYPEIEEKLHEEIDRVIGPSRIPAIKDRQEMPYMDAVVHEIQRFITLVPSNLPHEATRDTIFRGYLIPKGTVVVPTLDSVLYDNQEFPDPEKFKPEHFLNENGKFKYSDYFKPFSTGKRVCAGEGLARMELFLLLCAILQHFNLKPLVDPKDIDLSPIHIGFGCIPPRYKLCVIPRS
The next data set has as its target T9, Cytochrome P450 2A6 (Homo sapiens, UniProt P11509).
T9 sequence (P11509 whole entry): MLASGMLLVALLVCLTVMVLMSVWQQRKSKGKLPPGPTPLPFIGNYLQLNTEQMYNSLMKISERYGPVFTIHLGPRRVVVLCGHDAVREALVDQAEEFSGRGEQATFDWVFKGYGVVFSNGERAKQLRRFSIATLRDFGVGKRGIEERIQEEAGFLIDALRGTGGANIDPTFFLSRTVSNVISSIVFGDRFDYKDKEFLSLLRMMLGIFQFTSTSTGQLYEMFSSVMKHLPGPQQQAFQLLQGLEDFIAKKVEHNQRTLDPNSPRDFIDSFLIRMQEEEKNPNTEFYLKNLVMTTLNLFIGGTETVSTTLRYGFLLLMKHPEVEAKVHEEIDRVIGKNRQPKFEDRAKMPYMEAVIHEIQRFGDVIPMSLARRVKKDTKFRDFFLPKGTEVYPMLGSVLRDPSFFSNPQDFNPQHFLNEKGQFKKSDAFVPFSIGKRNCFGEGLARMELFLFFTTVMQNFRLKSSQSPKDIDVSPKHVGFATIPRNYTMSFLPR
The data set can be described thus: Mechanism based inhibition of human cytochrome P450 2A6. Type of data set: ADME.

In the next data set the target is Cytochrome P450 3A4 (Homo sapiens, UniProt P08684). In words: Mechanism based inhibition of human cytochrome P450 3A4 measured by midazolam 1'-hydroxylation. In kind it is ADME.
Sequence of Cytochrome P450 3A4 (P08684 whole entry): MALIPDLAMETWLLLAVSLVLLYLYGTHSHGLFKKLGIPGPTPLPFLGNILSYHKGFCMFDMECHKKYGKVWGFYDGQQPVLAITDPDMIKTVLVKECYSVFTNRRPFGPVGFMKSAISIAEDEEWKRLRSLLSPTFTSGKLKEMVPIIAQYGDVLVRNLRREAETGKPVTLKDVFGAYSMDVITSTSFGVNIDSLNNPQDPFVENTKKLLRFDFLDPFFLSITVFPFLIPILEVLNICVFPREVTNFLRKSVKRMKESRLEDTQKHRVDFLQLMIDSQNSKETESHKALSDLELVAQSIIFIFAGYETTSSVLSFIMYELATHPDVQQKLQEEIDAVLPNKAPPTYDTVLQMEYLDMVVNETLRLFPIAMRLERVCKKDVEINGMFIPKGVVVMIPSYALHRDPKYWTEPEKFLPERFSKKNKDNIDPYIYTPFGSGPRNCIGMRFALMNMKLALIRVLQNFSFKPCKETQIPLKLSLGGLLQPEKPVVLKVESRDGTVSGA
Data set [10] deals with T10, Cytochrome P450 2B6 (Homo sapiens, UniProt P20813).
T10 sequence (P20813 whole entry): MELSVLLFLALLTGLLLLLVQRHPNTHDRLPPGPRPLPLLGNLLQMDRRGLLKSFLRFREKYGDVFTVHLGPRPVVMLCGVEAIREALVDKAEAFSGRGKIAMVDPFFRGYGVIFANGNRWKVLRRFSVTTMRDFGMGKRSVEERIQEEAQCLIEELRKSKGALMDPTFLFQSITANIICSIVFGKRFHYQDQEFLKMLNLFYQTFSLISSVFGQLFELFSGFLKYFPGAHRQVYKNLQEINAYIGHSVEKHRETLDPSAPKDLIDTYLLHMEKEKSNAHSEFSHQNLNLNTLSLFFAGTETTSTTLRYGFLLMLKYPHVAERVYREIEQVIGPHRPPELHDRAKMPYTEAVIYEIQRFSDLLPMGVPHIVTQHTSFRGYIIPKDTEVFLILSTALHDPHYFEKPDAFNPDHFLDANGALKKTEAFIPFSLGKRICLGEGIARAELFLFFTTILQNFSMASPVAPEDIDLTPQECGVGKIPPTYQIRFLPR
In words: Mechanism based inhibition of human cytochrome P450 2B6 measured by 7-EFC O-deethylation. Type of data set: ADME.

In the next data set the target is T11, CYP2B6 (Homo sapiens, UniProt P20813).
T11 sequence (P20813 whole entry): T10 sequence (P20813 whole entry)
In words: (§4) Mechanism based inhibition of human cytochrome P450 2B6 measured by N-(3,5-dichloro-4-pyridyl)-3- (cyclopentoxy)-4- methoxybenzamide (DCMB) hydroxylase activity. Type of data set: ADME. As to conditions: human.

Data set [11] addresses T10, Cytochrome P450 2B6. The description is as §4. In kind it is ADME.

In the case of `CCCCc1oc2ccccc2c1C(=O)c1cc(I)c(OCCN(CC)CC)c(I)c1` [AMIODARONE], the kinact at CYP2C8 [1] was 0.000483 s⁻¹; at CYP2C8 [2] it was 0.00132 s⁻¹. The Ki was found to be 1.5 µM on Cytochrome P450 2C8 [3] and 51.2 µM on Cytochrome P450 2C8 [4].
Take `C#CC(C)OC(C)(C)C` (stereo not given): the kinact in [5] is 0.002 s⁻¹; at CYP2B4, 0.0533 s⁻¹. The same compound had a Ki at Cytochrome P450 2B4 [6] of 37 µM. Moreover, the mechanism based inhibition result at Cytochrome P450 2B4 [6] (rabbit) is “Cytochrome P450 mechanistic inhibitor: PMID 15751959”. The partition_ratio on Cytochrome P450 2B4 [7] came out at 12.
Regarding `C#Cc1cc2ccccc2c2ccccc12`, the kinact at CYP2B1 was 0.0075 s⁻¹; on CYP1A2, 0.000667 s⁻¹. Also, the Ki on Cytochrome P450 2B1 [8] stood at 0.14 µM; at Cytochrome P450 1A2, 0.03 µM.
In the case of `O=C(NCCc1ccc(Br)cc1)C(F)Cl` (stereo not given), the mechanism based inhibition result at Cytochrome P450 2B1 [9] is on record as “Cytochrome P450 mechanistic inhibitor: PMID 1971568”.
For the compound `CCN(CC)C(=S)S` [DITIOCARB], the mechanism based inhibition entry at Cytochrome P450 2E1 and on Cytochrome P450 2A6 was “Cytochrome P450 mechanistic inhibitor: PMID 9695717” throughout.
Take `CC/C(=C(\c1ccccc1)c1ccc(OCCN(C)C)cc1)c1ccccc1` [TAMOXIFEN]: at Cytochrome P450 3A4, the mechanism based inhibition entry is “Cytochrome P450 mechanistic inhibitor”. Moreover, the Ki at Cytochrome P450 2B6 [10] is 0.9 µM.
Regarding `C#CCOc1cc(C(=O)Nc2c(Cl)cncc2Cl)ccc1OC`, the kinact on CYP2B6 was 0.0015 s⁻¹. Also, the Ki on Cytochrome P450 2B6 [11] was 5.1 µM.

A word on the kinact: it is the maximal first-order rate at which the target is inactivated.
